{
  "source": "patent US20080090895A1",
  "about": "“Novel Pharmaceutical Composition And Their Uses Thereof For Controlling The Different Forms Of Addiction To Drugs” (Trimaran Limited, priority 2004, published 2008)",
  "key": {"male mice of OF1 strain [1]": {"system": "male mice of OF1 strain", "assay": "Measurement of the analgesia by the hotplate test", "format": "in vivo", "procedure": "(§1) The animals used in this study are male mice of OF1 strain weighing about 20 g at the start of the experiments (Charles River, France). They live in an environment whose daily lighting cycle (07:30 h; 17:30 h) is constant throughout the year, and the temperature is maintained at about 22° C. The mice have free access to water and food, and the experiments are performed in accordance with the international rules on ethics in animal experimentation.\n(§2) The animals are treated chronically via the intraperitoneal route (IP) with amisulpride or physiological saline. The injections are performed twice a day, with an interval of about eight hours between each administration, over a period ranging between five days and three weeks. […] RB101 is administered on the day of the test intravenously (IV), 10 minutes before the start of the test (except for the measurements of locomotor activity performed immediately after injection).\n3.2 Measurement of the Analgesia by the Hotplate Test\nThe mice are placed individually inside a cylinder, on a plate heated to 52±1° C. by a water circuit. The lag time for the jumping of the mice is measured, the value 100 of the percentage of analgesia corresponding to a time limited to 240 seconds in order to avoid skin lesions. The test is performed 10 minutes after injection of RB101 (5 mg/kg, IV) or of the vehicle. The results are expressed as a percentage of analgesia calculated by means of the following formula: (mean of the jumping lag times for the treated group—mean of the jumping lag times for the control group)/(240−mean of the jumping lag times for the control group)×100. The results are expressed as mean ±sem."}, "male mice of OF1 strain [2]": {"system": "male mice of OF1 strain", "conditions": "Baamonde et al., 1992; Browne, 1980; cited from earlier work"}, "male mice of OF1 strain [3]": {"system": "male mice of OF1 strain", "conditions": "Baamonde et al., 1992; cited from earlier work"}, "male mice of OF1 strain [4]": {"system": "male mice of OF1 strain", "assay": "Conditioned preference of place: measurement of the psychic dependency", "format": "in vivo", "procedure": "as §1, §2\n3.4 Conditioned Preference of Place: Measurement of the Psychic Dependency\nThe apparatus for conditioned preference of place consists of a box divided into three separate compartments: a black compartment with a smooth floor, a black and white stripy compartment with a rough floor, and a neutral central compartment.\nThe Test Proceeds in 3 Phases:\n• a pretest phase: the animal is placed in the neutral central compartment and has free access to the three compartments of the apparatus for 20 minutes. The time spent in each compartment is recorded using a camera connected to a computer. The mice showing a spontaneous preference for one of the compartments (i.e. spending more than 75% of the allotted time in one of the side compartments) are removed from the experiment.\nAfter this first session, the animals are randomized in order to assign a treatment to them (morphine or physiological saline, SC) and the compartment in which they will receive the drug (black or black and white stripy compartment). […]"}, "male mice of OF1 strain [5]": {"system": "male mice of OF1 strain", "assay": "Measurement of the locomotor activity", "format": "in vivo"}, "male mice of OF1 strain [6]": {"system": "male mice of OF1 strain", "assay": "Test of forced swimming (Porsolt's test): model of depression", "format": "in vivo", "conditions": "0.25 mg/kg, IV", "procedure": "as §1, §2\n3.3 Test of Forced Swimming (Porsolt's Test): Model of Depression\nThe mice are placed individually in a cylindrical container filled to a height of 15 cm with water, the water being at room temperature. After a delay of 2 minutes, the total immobile time of the animal is measured for 4 minutes. The movements necessary for the animal to keep its head above water are not counted."}},
  "note": "Structures can show the parent of a compound that is named as a salt.",
  "data": [
    {"smiles": "CSCC[C@H](N)CSSCC(Cc1ccccc1)C(=O)N[C@@H](Cc1ccccc1)C(=O)OCc1ccccc1", "note": "(stereo partly drawn) [RB101]", "values": [
      {"measurement": "percentage of analgesia (hotplate, jumping lag time)", "setting": "male mice of OF1 strain [1]; RB101 5 mg/kg IV on the day of the test, alone or after amisulpride treatment for five days (20 mg/kg IP twice/day)", "value": "38.4%±10.8%"},
      {"measurement": "percentage of analgesia (hotplate, jumping lag time)", "setting": "male mice of OF1 strain [1]; RB101 dose effect, 5 mg/kg intravenously, 10 minutes before the test, mean ±sem", "value": "45.2%±10.6%"},
      {"measurement": "effect of the substance alone on locomotor activity in mice (literature)", "setting": "male mice of OF1 strain [2]", "value": "increase in locomotor activity"},
      {"measurement": "effect of RB101 alone on immobile time in forced swimming (literature)", "setting": "male mice of OF1 strain [3]", "value": "reduces the immobile time"}
    ]},
    {"smiles": "CN1CC[C@]23c4c5ccc(O)c4O[C@H]2[C@@H](O)C=C[C@H]3[C@H]1C5.Cl", "note": "[morphine, morphine hydrochloride]", "values": [
      {"measurement": "conditioned place preference (test 1)", "setting": "male mice of OF1 strain [4]; morphine 10 mg/kg SC conditioning, relative to the saline solution group", "value": "Place preference is observed"},
      {"measurement": "conditioned place preference (test 2)", "setting": "male mice of OF1 strain [4]; morphine-conditioned mice, amisulpride 20 mg/kg IP twice a day for 5 days, RB101 IV on the day of test 2 (sixth day), or no such treatment, relative to control group", "value": "tendency toward persistence of the place preference"},
      {"measurement": "conditioned place preference (test 3)", "setting": "male mice of OF1 strain [4]; morphine-conditioned mice, four days after test 2, no RB101 on the day of test 3, with or without prior amisulpride+RB101 treatment", "value": "A place preference is found"}
    ]},
    {"smiles": "CCC(=O)C(CC(C)N(C)C)(c1ccccc1)c1ccccc1", "note": "(stereo not drawn) [methadone, Methadone hydrochloride]", "values": [
      {"measurement": "analgesia of methadone alone in the hotplate test", "setting": "male mice of OF1 strain [1]; 0.25 mg/kg, IV", "value": "pronounced analgesia"},
      {"measurement": "effect of methadone alone in locomotor activity", "setting": "male mice of OF1 strain [5]; 0.25 mg/kg, IV", "value": "did not show a significant effect"},
      {"measurement": "effect of methadone alone in forced swimming", "setting": "male mice of OF1 strain [6]", "value": "did not show a significant effect"},
      {"measurement": "effect of the substance alone on locomotor activity in mice (literature)", "setting": "male mice of OF1 strain [2]", "value": "hyperlocomotor activity"}
    ]},
    {"smiles": "CCN1CCCC1CNC(=O)c1cc(S(=O)(=O)CC)c(N)cc1OC", "note": "(stereo not drawn) [amisulpride]", "values": [
      {"measurement": "dose at which the reduction in locomotor activity is significant", "setting": "male mice of OF1 strain [5]; doses tested 0.5, 2, 10, 20 and 50 mg/kg", "value": "≥ 10", "unit": "mg/kg"}
    ]}
  ]
}
